Laboratory results published in patent publication US20100256357A1, “HETEROCYCLES USEFUL AS INHIBITORS OF CARBONIC ANHYDRASE” (Agouron Pharmaceuticals, Inc., priority 2006, published 2010).
Read-outs that look alike come from different tables or passages of the source.

How the values were obtained:
[1] = target: CAI (Homo sapiens, UniProt P00915); assay: CAI IC50 (no method described); type: biochemical
[2] = target: T1, human CA-II (Homo sapiens, UniProt P00918); assay: Carbonic Anhydrase-II (CA-II) Fluorescence Polarization Tight Binding Assay-Kd Determination
T1 construct: purchased Sigma-Aldrich C6165
Method: Assays were conducted in a final volume of 100 μL in 50 mM Tris/HCl (pH 7.6), 100 mM Na2SO4 and 0.005% Tween-20 in a 96-well black assay plate. […] The assay plate was
The Kd binding was calculated using GraphPad Prism and Morrison tight binding ligand equation.

[3] = target: T2, human CA-IV (Homo sapiens, UniProt P22748); assay: Carbonic Anhydrase-IV (CA-IV) Fluorescence Polarization Assay-IC50 Determination; type: binding
T2 construct: made in house; host or cells: Escherichia coli BL21(DE3)
T2 sequence (P22748 19-284 limits assumed): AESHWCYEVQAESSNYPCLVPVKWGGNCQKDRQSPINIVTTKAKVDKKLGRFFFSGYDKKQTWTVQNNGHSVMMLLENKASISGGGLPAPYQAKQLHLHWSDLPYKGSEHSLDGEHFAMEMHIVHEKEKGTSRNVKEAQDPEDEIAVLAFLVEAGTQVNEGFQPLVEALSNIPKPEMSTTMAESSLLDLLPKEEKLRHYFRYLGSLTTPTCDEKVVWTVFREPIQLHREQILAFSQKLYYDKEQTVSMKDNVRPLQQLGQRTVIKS
Outline: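 Recombinant CA-IV expressed with 800 uM ZnCl2, purified by SP-Sepharose and Sephacryl S-100 in 25 mM Tris-HCl pH 7.0, 100 mM NaCl, concentrated to 7.0 mg/mL. IC50 by fluorescence polarization.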

[4] = target: T1, human CA-II; assay: Carbonic Anhydrase-II (CA-II) Fluorimetric Assay-IC50 Determination; type: biochemical
Outline: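 Compounds were tested as an 11-point, 1:3 dilution series in duplicate, with a top final concentration of 1 μM, in 50 mM Tris/HCl pH 7.6, 100 mM Na2SO4 and 0.005% Tween-20. Human CA-II activity was followed as the rate of fluorescein diacetate hydrolysis at 25° C, with excitation at 488 nm and emission at 538 nm.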

[5] = target: T3, human CA-IX (Homo sapiens, UniProt Q16790); assay: Carbonic Anhydrase-IX (CA-IX) Fluorescence Polarization Assay-IC50 Determination; type: binding; settings: read-out: CAIX IC50
T3 construct: purchased R&D Systems Inc. 2188-CA-010
Method: Carbonic Anhydrase-IX (CA-IX) Fluorescence Polarization Assay-IC50 Determination
Compounds were diluted in DMSO at the concentration of 1 mM, then 50 μM and transferred to a 96-well plate for further dilutions (1:3 dilution, 11 points) in duplicate. Final compound highest concentration in CA-IX FP assay is 1 μM. Assays were conducted in a final volume of 100 μL in 50 mM Tris/HCl (pH 7.6), 100 mM Na2SO4 and 0.005% Tween-20 in a 96-well black assay. plate. […] was used as the tracer. Binding inhibition was determined by pipetting 8 μL of human CA-IX (8 nM, R&D Systems Inc. Cat#2188-CA-010) into assay plate contained 2 μL of compound and 2 μL of tracer (2 nM) in 88 μL of assay buffer. The assay plate was incubated at room temperature for 30 minutes and read in the fluorescence polarization reader (Molecular Devices, Analyst) at 524/45 nm (excitation), 595/60 nm (emission) and 561 nm (bean splitter). […] GraphPad Prism or similar in-house software with the IC50 curve fitting using the four parameter logistic equation.

Sequence of CAI (P00915 whole entry, species assumed): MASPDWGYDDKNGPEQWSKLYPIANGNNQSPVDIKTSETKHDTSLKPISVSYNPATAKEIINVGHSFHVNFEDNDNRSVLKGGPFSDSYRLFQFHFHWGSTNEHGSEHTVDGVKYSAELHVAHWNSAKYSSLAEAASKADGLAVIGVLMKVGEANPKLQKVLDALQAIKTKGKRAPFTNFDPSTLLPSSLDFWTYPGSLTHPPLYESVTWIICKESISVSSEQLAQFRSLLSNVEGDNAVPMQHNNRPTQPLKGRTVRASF

SMILES | IC50 [1] [nM] | Kd ([2]; read-out: Kd_CAII) [nM] | IC50 ([3]; read-out: IC50_CAIV) [nM] | further results
CN(CCN1CCOCC1)C(=O)c1nc(Cc2ccccc2)n(-c2ccc(S(N)(=O)=O)cc2F)n1 [Example A-1k, 1-[4-(aminosulfonyl)-2-fluorophenyl]-5-benzyl-N-methyl-N-(2-morpholin-4-ylethyl)-1H-1,2,4-triazole-3-carboxamide] | 23 | 0.22 | 148 | –
Cc1cccc(Cc2nc(C)nn2-c2ccc(S(N)(=O)=O)c(F)c2F)c1 [Example Q-1, 2,3-Difluoro-4-[3-methyl-5-(3-methylbenzyl)-1H-1,2,4-triazol-1-yl]benzenesulfonamide] | 4610 | – | – | % printed in column IC50—CAII ([4]; 69 0.010 nM (so in the source)): 0% 69 0.010 nM; % printed in column IC50_CAIV ([3]; @ 5 uM): 51% @ 5 uM
CN(C)[C@H]1CCN(C(=O)c2nc(Cc3ccccc3)n(-c3ccc(S(N)(=O)=O)cc3F)n2)C1 [Example A-1m, 4-(5-benzyl-3-{[(3S)-3-(dimethylamino)pyrrolidin-1-yl]carbonyl}-1H-1,2,4-triazol-1-yl)-3-fluorobenzenesulfonamide] | 21 | 0.2 | 429 | –
COC[C@H](C)NC(=O)c1nc(Cc2ccccc2)n(-c2ccc(S(N)(=O)=O)cc2)n1 [Example R-21, 1-[4-(aminosulfonyl)phenyl]-5-benzyl-N-[(1S)-2-methoxy-1-methylethyl]-1H-124-triazole-3-carboxamide] | – | – | – | Kd ([2]; read-out: CA-II Kd): 0.09 nM; inhibition at 0.1 µM ([4]; CA II Min dose 100 nM, read-out: CAII % Inh @ Min dose): 100%; IC50 [5]: 53.3 nM; inhibition at 0.2 µM ([3]; CA-IV Min dose 200 nM, read-out: CA-IV: % Inh @ Min dose): 53.6%; IC50 ([3]; read-out: CA-IV IC50): 356 nM
CC(C)OC(=O)c1nc(Cc2ccccc2)n(-c2ccc(S(N)(=O)=O)cc2)n1 [Example P-1, Isopropyl 1-[4-(aminosulfonyl)phenyl]-5-benzyl-1H-1,2,4-triazole-3-carboxylate] | 41 | 0.15 | 486 | –
